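Grown in 96-well plates, cells were treated for 48 hours with each compound at five concentrations. Insufficient inhibition: endpoint recorded as highest concentration tested. GI50 is the concentration that inhibits growth by half. TGI: total growth inhibition.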
How the values were obtained:
Assay in all cases: NCI-60 cell line screen, 48 h
A498 renal = test system: A498 renal
ACHN renal = test system: ACHN renal
EKVX NSCLC = test system: EKVX NSCLC
HCT-116 colon = test system: HCT-116 colon
HOP-92 NSCLC = test system: HOP-92 NSCLC
KM12 colon = test system: KM12 colon
NCI-H460 lung = test system: NCI-H460 lung
RXF 393 renal = test system: RXF 393 renal
TK-10 renal = test system: TK-10 renal
U251 CNS = test system: U251 CNS

SMILES	GI50 (A498 renal)	TGI (A498 renal)	GI50 (ACHN renal)	TGI (ACHN renal)	GI50 (EKVX NSCLC)	TGI (EKVX NSCLC)	GI50 (HCT-116 colon)	TGI (HCT-116 colon)	GI50 (HOP-92 NSCLC)	TGI (HOP-92 NSCLC)	GI50 (KM12 colon)	GI50 (NCI-H460 lung)	TGI (NCI-H460 lung)	GI50 (RXF 393 renal)	TGI (RXF 393 renal)	GI50 (TK-10 renal)	TGI (TK-10 renal)	GI50 (U251 CNS)	TGI (U251 CNS)	TGI (KM12 colon)
O=C(/C=C/C12c3ccccc3C(c3ccccc31)C1C(=O)N(c3ccc(Cl)cc3)C(=O)C12)c1ccccn1 (centres undefined)	0.277 µM	0.792 µM	0.234 µM	0.56 µM	0.381 µM	2.38 µM	0.183 µM	0.423 µM	0.452 µM	1.11 µM	0.345 µM	0.232 µM	0.568 µM	0.187 µM	0.448 µM	1.46 µM	4.87 µM	0.256 µM	0.74 µM	–
CN1C(=O)CC2(C)c3cc(O)cc(Br)c3N(C)C12 (centres undefined)	–	> 100 µM	–	> 100 µM	–	> 100 µM	–	> 100 µM	–	> 100 µM	–	–	> 100 µM	–	> 100 µM	–	> 100 µM	–	> 100 µM	> 100 µM
CCCCCCC1N=C(N)N=C(N)N1c1cccc(Cl)c1 (centres undefined)	2.67 µM	15.6 µM	9.28 µM	> 100 µM	0.307 µM	19.3 µM	0.0747 µM	14.3 µM	0.491 µM	5.94 µM	0.421 µM	0.0873 µM	12.7 µM	3.44 µM	15.7 µM	3.66 µM	25.9 µM	0.0616 µM	13.7 µM	7.26 µM
C/C(CCn1[nH]c(=O)ccc1=O)=N\NC(=O)C(N)=O	–	> 100 µM	–	> 100 µM	–	> 100 µM	–	> 100 µM	–	> 100 µM	–	–	> 100 µM	–	> 100 µM	–	> 100 µM	–	> 100 µM	> 100 µM
Cc1ccc(-c2nc3nc(-c4ccc(F)cc4)nc(N4CCNCC4)c3o2)cc1	16.1 µM	30.5 µM	1.79 µM	3.19 µM	4.53 µM	17.3 µM	1.7 µM	3.32 µM	4.5 µM	22.6 µM	1.88 µM	1.94 µM	3.77 µM	10.7 µM	23.2 µM	2.07 µM	6.38 µM	1.95 µM	4.03 µM	3.61 µM
COc1cc2c3c(n(CCCN4CCNCC4)c(=O)c2cc1OC)-c1cc2c(cc1C3=O)OCO2	0.281 µM	4.44 µM	0.0394 µM	0.283 µM	8.51 µM	17.2 µM	0.281 µM	2.42 µM	0.041 µM	1.28 µM	0.633 µM	0.00951 µM	2.07 µM	0.811 µM	4.89 µM	0.762 µM	2.66 µM	0.0892 µM	2.92 µM	2.24 µM
O=C1Nc2ccccc2/C1=C\c1c(-c2ccccc2)nc2sccn12	0.927 µM	5.33 µM	2.13 µM	14.5 µM	7.84 µM	32.6 µM	1.7 µM	8.96 µM	2.14 µM	7.87 µM	0.833 µM	3.15 µM	43.9 µM	3.35 µM	26.6 µM	4.61 µM	17.2 µM	2.25 µM	7.96 µM	20.1 µM

Reference: PubChem BioAssay (NCI)
